Laboratory results as given in the NIST ThermoML archive (doi:10.1016/j.fluid.2017.06.022).

Assay: xn = mol fraction of the nth substance listed
Settings: Liquid, Bellows volumetry

C=C [ethene] + Cc1ccccc1
Settings | mass density [kg/m3]
421 K, 37600 kPa, x1 = 0.3067 | 688.2
421 K, 44700 kPa, x1 = 0.3067 | 698
421 K, 51000 kPa, x1 = 0.3067 | 705.4
421 K, 58300 kPa, x1 = 0.3067 | 714.6
421 K, 63100 kPa, x1 = 0.3067 | 720.1
421 K, 66800 kPa, x1 = 0.3067 | 724
422.2 K, 2530 kPa, x1 = 0.1194 | 681.2
422.2 K, 2830 kPa, x1 = 0.1194 | 682.2
422.2 K, 3620 kPa, x1 = 0.1194 | 684.1
422.2 K, 5330 kPa, x1 = 0.1194 | 688.4
422.2 K, 7040 kPa, x1 = 0.1194 | 692.2
422.2 K, 7110 kPa, x1 = 0.1194 | 692.2
422.2 K, 10420 kPa, x1 = 0.1194 | 699.6
422.2 K, 13400 kPa, x1 = 0.1194 | 705.1
422.2 K, 17400 kPa, x1 = 0.1194 | 712.2
422.2 K, 20480 kPa, x1 = 0.1194 | 716.9
422.2 K, 22980 kPa, x1 = 0.1194 | 720.6
422.2 K, 24010 kPa, x1 = 0.1194 | 722.1
422.2 K, 30990 kPa, x1 = 0.1194 | 731.2
422.2 K, 37420 kPa, x1 = 0.1194 | 739.4
422.2 K, 44550 kPa, x1 = 0.1194 | 747.3
422.2 K, 51320 kPa, x1 = 0.1194 | 755.3
422.2 K, 58240 kPa, x1 = 0.1194 | 762.3
422.2 K, 63240 kPa, x1 = 0.1194 | 767.6
422.2 K, 67210 kPa, x1 = 0.1194 | 771.2
470.9 K, 3430 kPa, x1 = 0.1194 | 616.2
470.9 K, 3560 kPa, x1 = 0.1194 | 617.7
470.9 K, 4240 kPa, x1 = 0.1194 | 620.4
470.9 K, 4990 kPa, x1 = 0.1194 | 623.6
470.9 K, 5950 kPa, x1 = 0.1194 | 627.5
470.9 K, 7310 kPa, x1 = 0.1194 | 631.9
470.9 K, 10590 kPa, x1 = 0.1194 | 642.6
470.9 K, 14000 kPa, x1 = 0.1194 | 652.4
470.9 K, 16940 kPa, x1 = 0.1194 | 659.8
470.9 K, 24260 kPa, x1 = 0.1194 | 676.6
470.9 K, 31240 kPa, x1 = 0.1194 | 690.3
470.9 K, 37460 kPa, x1 = 0.1194 | 701.1
470.9 K, 41500 kPa, x1 = 0.1194 | 707.1
470.9 K, 44850 kPa, x1 = 0.1194 | 712.2
470.9 K, 51420 kPa, x1 = 0.1194 | 720.6
470.9 K, 58440 kPa, x1 = 0.1194 | 729.1
470.9 K, 62650 kPa, x1 = 0.1194 | 733.4
470.9 K, 67380 kPa, x1 = 0.1194 | 738.3
475.1 K, 7800 kPa, x1 = 0.3067 | 540.4
475.1 K, 8600 kPa, x1 = 0.3067 | 545.2
475.1 K, 9400 kPa, x1 = 0.3067 | 551
475.1 K, 10600 kPa, x1 = 0.3067 | 557.2
475.1 K, 12100 kPa, x1 = 0.3067 | 565.4
475.1 K, 14000 kPa, x1 = 0.3067 | 572.7
475.1 K, 17400 kPa, x1 = 0.3067 | 586
475.1 K, 20700 kPa, x1 = 0.3067 | 598.4
475.1 K, 24300 kPa, x1 = 0.3067 | 609
475.1 K, 30800 kPa, x1 = 0.3067 | 625.7
475.1 K, 37500 kPa, x1 = 0.3067 | 640.8
475.1 K, 44500 kPa, x1 = 0.3067 | 654.3
475.1 K, 51800 kPa, x1 = 0.3067 | 666.5
475.1 K, 58100 kPa, x1 = 0.3067 | 676.2
475.1 K, 63100 kPa, x1 = 0.3067 | 682.6
475.1 K, 67400 kPa, x1 = 0.3067 | 687.7
519 K, 4500 kPa, x1 = 0.1194 | 541.1
519 K, 5100 kPa, x1 = 0.1194 | 547.1
519 K, 6120 kPa, x1 = 0.1194 | 555.5
519 K, 7100 kPa, x1 = 0.1194 | 562.7
519 K, 8870 kPa, x1 = 0.1194 | 573.5
519 K, 10630 kPa, x1 = 0.1194 | 583
519 K, 13940 kPa, x1 = 0.1194 | 597.1
519 K, 14140 kPa, x1 = 0.1194 | 598.2
519 K, 17480 kPa, x1 = 0.1194 | 610.1
519 K, 24180 kPa, x1 = 0.1194 | 630.3
519 K, 31210 kPa, x1 = 0.1194 | 647.7
519 K, 38050 kPa, x1 = 0.1194 | 662.1
519 K, 44340 kPa, x1 = 0.1194 | 674.3
519 K, 51320 kPa, x1 = 0.1194 | 686.5
519 K, 51390 kPa, x1 = 0.1194 | 686.5
519 K, 58160 kPa, x1 = 0.1194 | 697.1
519 K, 63090 kPa, x1 = 0.1194 | 704.6
519 K, 66990 kPa, x1 = 0.1194 | 709.7
519.3 K, 8400 kPa, x1 = 0.3067 | 448
519.3 K, 8600 kPa, x1 = 0.3067 | 455.1
519.3 K, 9400 kPa, x1 = 0.3067 | 472
519.3 K, 10500 kPa, x1 = 0.3067 | 482.9
519.3 K, 12000 kPa, x1 = 0.3067 | 499.7
519.3 K, 13800 kPa, x1 = 0.3067 | 513.9
519.3 K, 14100 kPa, x1 = 0.3067 | 515.9
519.3 K, 15900 kPa, x1 = 0.3067 | 525.1
519.3 K, 17200 kPa, x1 = 0.3067 | 535.5
519.3 K, 20900 kPa, x1 = 0.3067 | 553.6
519.3 K, 24100 kPa, x1 = 0.3067 | 565.7
519.3 K, 31300 kPa, x1 = 0.3067 | 589.3
519.3 K, 37800 kPa, x1 = 0.3067 | 605
519.3 K, 44900 kPa, x1 = 0.3067 | 621.2
519.3 K, 51600 kPa, x1 = 0.3067 | 636.4
519.3 K, 58300 kPa, x1 = 0.3067 | 647.5
519.3 K, 63100 kPa, x1 = 0.3067 | 656.6
519.3 K, 67100 kPa, x1 = 0.3067 | 662.7
